According to patent US20220289727A1, “ENZYME INHIBITORS” (KALVISTA PHARMACEUTICALS LIMITED, priority 2019, published 2022):

Biological target: T1, Human FXIa (Homo sapiens, UniProt P03951)
T1 construct: Human FXIa (Enzyme Research Laboratories) was incubated; purchased Enzyme Research Laboratories
Assay: Determination of FXIa inhibitory activity in vitro (fluorogenic substrate Z-Gly-Pro-Arg-AFC)
Type: biochemical
Conditions: selectivity, 25° C., residual enzyme activity (initial rate)

T1 sequence (P03951 388-625 limits assumed): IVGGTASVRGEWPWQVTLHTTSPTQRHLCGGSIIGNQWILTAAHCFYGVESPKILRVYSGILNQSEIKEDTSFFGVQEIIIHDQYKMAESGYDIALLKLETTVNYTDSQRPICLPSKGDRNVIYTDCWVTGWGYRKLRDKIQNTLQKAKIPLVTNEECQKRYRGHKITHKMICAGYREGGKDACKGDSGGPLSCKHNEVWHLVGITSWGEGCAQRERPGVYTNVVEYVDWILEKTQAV
T1 sequence (P03951 19-387 partner limits assumed): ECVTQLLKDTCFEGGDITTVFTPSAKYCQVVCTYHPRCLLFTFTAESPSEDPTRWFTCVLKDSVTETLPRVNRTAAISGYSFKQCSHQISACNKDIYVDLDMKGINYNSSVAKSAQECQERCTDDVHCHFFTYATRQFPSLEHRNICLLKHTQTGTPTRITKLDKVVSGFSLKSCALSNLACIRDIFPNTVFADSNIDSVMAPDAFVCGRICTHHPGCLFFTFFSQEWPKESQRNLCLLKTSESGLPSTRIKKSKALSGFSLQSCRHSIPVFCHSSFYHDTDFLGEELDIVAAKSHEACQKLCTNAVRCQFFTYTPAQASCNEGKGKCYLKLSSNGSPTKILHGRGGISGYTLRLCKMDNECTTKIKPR

| Structure (SMILES) | IC50 [µM] |
| --- | --- |
| Nc1nccc2cc(CNC(=O)c3cc(Cl)c(CNCC4CCN(c5ccncc5)CC4)s3)ccc12 [Example 2.36, N-[(1-Aminoisoquinolin-6-yl)methyl]-4-chloro-5-[({[1-(pyridin-4-yl)piperidin-4-yl]methyl}amino)methyl]thiophene-2-carboxamide] | 76.4 |
| Nc1nccc2cc(CNC(=O)c3cc(Cl)c(CNCc4ccc(N5CCCC5=O)cc4)s3)ccc12 [Example 2.58] | > 40 |
| Nc1nccc2cc(CNC(=O)c3cc(Cl)c(CN4CCN(c5ccncc5)CC4)s3)ccc12 [Example 5.12] | > 40 |
| Nc1nccc2cc(CNC(=O)c3cc(Cl)c(CN4CCN(c5cccnc5)CC4)s3)ccc12 [Example 5.16] | > 40 |
| Nc1nccc2cc(CNC(=O)c3cc(Cl)c(CN4CCN(c5ccccn5)CC4)s3)ccc12 [Example 5.17] | > 40 |
| Nc1nccc2cc(CNC(=O)c3cc(Cl)c(CN4CC[C@@H](Nc5cccnc5)C4)s3)ccc12 [Example 5.18, N-[(1-Amino-6-isoquinolyl)methyl]-4-chloro-5-[[(3R)-3-(3-pyridylamino)pyrrolidin-1-yl]methyl]thiophene-2-carboxamide] | 37.7 |
| Nc1nccc2cc(CNC(=O)c3cc(Cl)c(CN4Cc5ccncc5C4)s3)ccc12 [Example 5.19] | 29.3 |
| Cc1cc(C(=O)NCc2ccc3c(N)nccc3c2)sc1CN1CCN(c2ccncc2)CC1 [Example 5.20, N-[(1-Amino-6-isoquinolyl)methyl]-4-methyl-5-[[4-(4-pyridyl)piperazin-1-yl]methyl]thiophene-2-carboxamide] | > 40 |
| Nc1nccc2cc(CNC(=O)c3cc(Cl)c(CN4CC[C@H](Nc5cccnc5)C4)s3)ccc12 [Example 5.21] | > 40 |
| Nc1nccc2cc(CNC(=O)c3cc(Cl)c(CN4CCc5ccncc5C4)s3)ccc12 [Example 5.22] | > 40 |
| Nc1nccc2c1CC[C@H]2NC(=O)c1cc(Cl)c(CN2CCN(c3ccncc3)CC2)s1 [Example 5.23, N-[(5R)-1-Amino-6,7-dihydro-5H-cyclopenta[c]pyridin-5-yl]-4-chloro-5-[[4-(4-pyridyl)piperazin-1-yl]methyl]thiophene-2-carboxamide] | 8.35 |

Biological target: T2, Human Factor XIIa (Homo sapiens, UniProt P00748)
T2 construct: Human Factor XIIa (Enzyme Research Laboratories) was incubated; purchased Enzyme Research Laboratories
T2 sequence (P00748 373-615 limits assumed): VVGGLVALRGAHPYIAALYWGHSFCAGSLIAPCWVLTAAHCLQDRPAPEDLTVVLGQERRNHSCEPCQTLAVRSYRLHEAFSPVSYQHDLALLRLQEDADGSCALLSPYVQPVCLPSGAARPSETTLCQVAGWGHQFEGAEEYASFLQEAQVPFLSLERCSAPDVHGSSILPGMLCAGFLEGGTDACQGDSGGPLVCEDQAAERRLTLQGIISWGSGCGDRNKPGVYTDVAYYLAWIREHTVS
T2 sequence (P00748 20-372 partner limits assumed): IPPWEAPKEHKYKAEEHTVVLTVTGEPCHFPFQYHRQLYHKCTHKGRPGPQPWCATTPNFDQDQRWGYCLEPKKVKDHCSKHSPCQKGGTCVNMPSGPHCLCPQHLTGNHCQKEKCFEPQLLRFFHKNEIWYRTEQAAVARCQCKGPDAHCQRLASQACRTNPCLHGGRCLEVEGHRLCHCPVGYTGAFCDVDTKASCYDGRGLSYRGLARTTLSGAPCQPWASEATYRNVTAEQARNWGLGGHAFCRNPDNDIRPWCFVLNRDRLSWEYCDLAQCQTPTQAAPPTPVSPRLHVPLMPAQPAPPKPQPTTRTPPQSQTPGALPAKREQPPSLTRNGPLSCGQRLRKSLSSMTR
Assay: Determination of FXIIa inhibitory activity in vitro (fluorogenic substrate H-DPro-Phe-Arg-AFC)
Type: biochemical
Conditions: 25° C., residual enzyme activity (initial rate)

| Structure (SMILES) | IC50 [µM] |
| --- | --- |
| Nc1nccc2cc(CNC(=O)c3cc(Cl)c(CNCC4CCN(c5ccncc5)CC4)s3)ccc12 [Example 2.36, N-[(1-Aminoisoquinolin-6-yl)methyl]-4-chloro-5-[({[1-(pyridin-4-yl)piperidin-4-yl]methyl}amino)methyl]thiophene-2-carboxamide] | 1 to 3 |
| Nc1nccc2cc(CNC(=O)c3cc(Cl)c(CNCc4ccc(N5CCCC5=O)cc4)s3)ccc12 [Example 2.58] | 3 to 10 |
| Nc1nccc2cc(CNC(=O)c3cc(Cl)c(CN4CCN(c5ccncc5)CC4)s3)ccc12 [Example 5.12] | 3 to 10 |
| Nc1nccc2cc(CNC(=O)c3cc(Cl)c(CN4CCN(c5cccnc5)CC4)s3)ccc12 [Example 5.16] | 3 to 10 |
| Nc1nccc2cc(CNC(=O)c3cc(Cl)c(CN4CCN(c5ccccn5)CC4)s3)ccc12 [Example 5.17] | 10 to 40 |
| Nc1nccc2cc(CNC(=O)c3cc(Cl)c(CN4CC[C@@H](Nc5cccnc5)C4)s3)ccc12 [Example 5.18, N-[(1-Amino-6-isoquinolyl)methyl]-4-chloro-5-[[(3R)-3-(3-pyridylamino)pyrrolidin-1-yl]methyl]thiophene-2-carboxamide] | 10 to 40 |
| Nc1nccc2cc(CNC(=O)c3cc(Cl)c(CN4Cc5ccncc5C4)s3)ccc12 [Example 5.19] | 3 to 10 |
| Cc1cc(C(=O)NCc2ccc3c(N)nccc3c2)sc1CN1CCN(c2ccncc2)CC1 [Example 5.20, N-[(1-Amino-6-isoquinolyl)methyl]-4-methyl-5-[[4-(4-pyridyl)piperazin-1-yl]methyl]thiophene-2-carboxamide] | 10 to 40 |
| Nc1nccc2cc(CNC(=O)c3cc(Cl)c(CN4CC[C@H](Nc5cccnc5)C4)s3)ccc12 [Example 5.21] | 10 to 40 |
| Nc1nccc2cc(CNC(=O)c3cc(Cl)c(CN4CCc5ccncc5C4)s3)ccc12 [Example 5.22] | 3 to 10 |
| Nc1nccc2c1CC[C@H]2NC(=O)c1cc(Cl)c(CN2CCN(c3ccncc3)CC2)s1 [Example 5.23, N-[(5R)-1-Amino-6,7-dihydro-5H-cyclopenta[c]pyridin-5-yl]-4-chloro-5-[[4-(4-pyridyl)piperazin-1-yl]methyl]thiophene-2-carboxamide] | 10 to 40 |
| Nc1nccc2cc(CNC(=O)c3cc(Cl)c(COCc4cncnc4)s3)ccc12 [Example 7.21] | 3 to 10 |
| CCN(CC)CCCOCc1sc(C(=O)NCc2ccc3c(N)nccc3c2)cc1Cl [Example 7.22] | 1 to 3 |
| Nc1nccc2cc(CNC(=O)c3cc(Cl)c(COCCCN4CCCCC4)s3)ccc12 [Example 7.23] | 1 to 3 |
| Nc1nccc2cc(CNC(=O)c3cc(Cl)c(COCCCc4ccncc4)s3)ccc12 [Example 7.24] | 10 to 40 |
| Nc1nccc2cc(CNC(=O)c3cc(Cl)c(COCCCN4CCOCC4)s3)ccc12 [Example 7.25] | 3 to 10 |
| CN(C)CCCCOCc1sc(C(=O)NCc2ccc3c(N)nccc3c2)cc1Cl [Example 7.26, N-((1-Aminoisoquinolin-6-yl)methyl)-4-chloro-5-((4-(dimethylamino)butoxy)methyl)thiophene-2-carboxamide] | 1 to 3 |
| Cn1cc(CCCOCc2sc(C(=O)NCc3ccc4c(N)nccc4c3)cc2Cl)cn1 [Example 7.27] | 3 to 10 |
| Nc1nccc2cc(CNC(=O)c3cc(Cl)c(COCCCn4cccn4)s3)ccc12 [Example 7.28] | 10 to 40 |

| Structure (SMILES) | IC50 [µM] |
| --- | --- |
| Nc1nccc2cc(CNC(=O)c3cc(Cl)c(COCCCc4ccccn4)s3)ccc12 [Example 7.29] | 10 to 40 |
| CN(C)c1ccc(COCc2sc(C(=O)NCc3ccc4c(N)nccc4c3)cc2Cl)cc1 [Example 7.30] | 10 to 40 |
| CN(C)CCCOCc1sc(C(=O)NCc2ccc3c(N)nccc3c2)cc1Cl [Example 7.31] | 1 to 3 |
| Nc1nccc2cc(CNC(=O)c3cc(Cl)cs3)ccc12 [Example 25.01] | 10 to 40 |
| Cc1sc(C(=O)NCc2ccc3c(N)nccc3c2)cc1Br [Example 25.02] | 3 to 10 |
| Nc1nccc2cc(CNC(=O)c3ccc(Cl)s3)ccc12 [Example 25.03] | 10 to 40 |
| Cc1sc(C(=O)NCc2ccc3c(N)nccc3c2)cc1Cl [Example 25.04] | 3 to 10 |
| Nc1nccc2cc(CNC(=O)c3cc(Cl)c(Cc4ccccc4O)s3)ccc12 [Example 25.05] | 10 to 40 |
| COc1ccc(O)c(Cc2sc(C(=O)NCc3ccc4c(N)nccc4c3)cc2Cl)c1 [Example 25.06] | 10 to 40 |
| CN1CCC(CCc2sc(C(=O)NCc3ccc4c(N)nccc4c3)cc2Cl)CC1 [Example 25.11] | 1 to 3 |
| CN1CCC(CCc2csc(C(=O)NCc3ccc4c(N)nccc4c3)c2)CC1 [Example 25.12] | 3 to 10 |
| Nc1nccc2cc(CNC(=O)c3cc(Br)cs3)ccc12 [Example 25.13] | 3 to 10 |
| Nc1nccc2cc(CNC(=O)c3nc(CCC4CCNCC4)cs3)ccc12 [Example 25.14] | 1 to 3 |
| CN1CCC(CCc2csc(C(=O)NCc3ccc4c(N)nccc4c3)n2)CC1 [Example 25.15, N-((1-Aminoisoquinolin-6-yl)methyl)-4-(2-(1-methylpiperidin-4-yl)ethyl)thiazole-2-carboxamide] | < 1 |
| CN1CCC(Nc2csc(C(=O)NCc3ccc4c(N)nccc4c3)c2)CC1 [Example 25.16] | 10 to 40 |
| CN1CCC(CNc2csc(C(=O)NCc3ccc4c(N)nccc4c3)c2)CC1 [Example 25.17] | 10 to 40 |
| Cc1nc2[nH]ccc2c(C)c1CNC(=O)c1cc(Cl)c(C)s1 [Example 25.101, 4-Chloro-N-((4,6-dimethyl-1H-pyrrolo[2,3-b]pyridin-5-yl)methyl)-5-methylthiophene-2-carboxamide] | 10 to 40 |
| Cc1sc(C(=O)NCc2cc3c(N)nccc3s2)cc1Cl [Example 25.103, N-((4-aminothieno[3,2-c]pyridin-2-yl)methyl)-4-chloro-5-methylthiophene-2-carboxamide] | 10 to 40 |
| Cc1sc(C(=O)NCc2ccc3c(N)nccc3c2F)cc1Cl [Example 25.104, N-((1-Amino-5-fluoroisoquinolin-6-yl)methyl)-4-chloro-5-methylthiophene-2-carboxamide] | 10 to 40 |

| Structure (SMILES) | IC50 [µM] |
| --- | --- |
| Cc1cc(N)nc(C)c1CNC(=O)c1cc(Cl)c(C)s1 [Example 25.105, N-[(6-Amino-2,4-dimethylpyridin-3-yl)methyl]-4-chloro-5-methylthiophene-2-carboxamide] | 40 to 70 |
| Nc1nccc2cc(CNC(=O)c3cc4cccc(Cl)c4s3)ccc12 [Example 25.204] | 10 to 40 |
| Nc1nccc2cc(CNC(=O)c3cc4cc(F)ccc4s3)ccc12 [Example 25.205] | 3 to 10 |
| Nc1nccc2cc(CNC(=O)c3cc4c(F)cccc4s3)ccc12 [Example 25.206] | 10 to 40 |
| CN1CCC(Nc2cccc3sc(C(=O)NCc4ccc5c(N)nccc5c4)cc23)CC1 [Example 25.208] | 3 to 10 |
| CN1CCC(CNc2cccc3sc(C(=O)NCc4ccc5c(N)nccc5c4)cc23)CC1 [Example 25.209] | 3 to 10 |
| Cc1sc(C(=O)NCc2ccc3c(N)nccc3c2)c(NCC2CCN(C)CC2)c1C [Example 26.11] | 3 to 10 |
| Cc1cc(CCC2CCN(C)CC2)c(C(=O)NCc2ccc3c(N)nccc3c2)s1 [Example 26.12] | 3 to 10 |
| CN1CCC(CNc2ccsc2C(=O)NCc2ccc3c(N)nccc3c2)CC1 [Example 26.13] | 3 to 10 |
| Cc1nsc(C(=O)NCc2ccc3c(N)nccc3c2)c1NCC1CCNCC1 [Example 26.14] | 10 to 40 |
| Cc1nsc(C(=O)NCc2ccc3c(N)nccc3c2)c1NCC1CCN(C)CC1 [Example 26.15] | 3 to 10 |
| CN1CCC(CNc2ncsc2C(=O)NCc2ccc3c(N)nccc3c2)CC1 [Example 26.16, N-((1-Aminoisoquinolin-6-yl)methyl)-4-(((1-methylpiperidin-4-yl)methyl)amino)thiazole-5-carboxamide] | 1 to 3 |
| CN1CCC(CCCn2nccc2C(=O)NCc2ccc3c(N)nccc3c2)CC1 [Example 35.08] | 1 to 3 |
| CCOc1ccc(Cn2nccc2C(=O)NCc2ccc3c(N)nccc3c2)cc1 [Example 35.09] | 10 to 40 |
| CN1CCC(CCn2nccc2C(=O)NCc2cc3c(N)nccc3s2)CC1 [Example 46.01, N-((4-aminothieno[3,2-c]pyridin-2-yl)methyl)-1-(2-(1-methylpiperidin-4-yl)ethyl)-1H-pyrazole-5-carboxamide] | 10 to 40 |
| Cc1c(C(=O)NCc2ccc3c(N)nccc3c2)cc(-c2ccccc2)n1CCCN1CCOCC1 [Example 51.01] | 10 to 40 |
| CN1CCC(CCn2ccc(C(=O)NCc3ccc4c(N)nccc4c3)n2)CC1 [Example 51.06] | 1 to 3 |
| CN1CCC(CCCn2ccc(C(=O)NCc3ccc4c(N)nccc4c3)n2)CC1 [Example 51.07] | 1 to 3 |
| CC(=O)N1CCC(CCn2ccc(C(=O)NCc3ccc4c(N)nccc4c3)n2)CC1 [Example 51.08] | 10 to 40 |
